Test results taken from US11046745B2, “Peptide mimotopes of the CD3 T-cell co-receptor epsilon chain and uses thereof” (BioNTech SE, priority 2015, dated 2021).
Positions of bridges follow the written chain, without caps; N, C: chain ends. Residues, ends and D or L forms follow the SMILES beside them. *: point of attachment. Biotin = O=C1N[C@H]2[C@H](CS[C@H]2CCCCC(=O)*)N1

Tests used:
[1] = tested on: TR66 antibody (CD3ε specific antibody, clone TR66); test: Binding analysis using biolayer interferometry (BLI), Octet Red, biotinylated peptides on streptavidin sensors; conditions: 500 nM TR66 antibody, one concentration
Protocol: FIG. 5. Comparative binding analysis of matured TR66 mimotopes aCD3-04-002 and aCD3-04-013 using biolayer interferometry (BLI) on an Octet Red system (fortéBIO). Biotinylated peptides were immobilized onto streptavidin (SA) sensors. After blocking with 1× blocking buffer and biocytin association and dissociaten rates of TR66 binding were recorded over a period of 2400 sec respectively. The antibody was used in a range of 1.5625 to 100 nM (1.5625, 3.125, 6.25, 12.5, 25, 50, 100 nM) for each analyzed peptide.
Binding analysis was performed using streptavidin (SA) sensors on an Octet Red system (fortéBIO). 5 μg/ml of biotinylated peptides were used for loading (200 μl per sensor). […] Remained biotin binding sites on coated streptavidin sensors were blocked using 100 μg/ml biocytin (Sigma-Aldrich) for 5 minutes. For binding mode analysis of different peptides 500 nM TR66 antibody was used in the association step. For detailed analysis the antibody was used in a range of 1.5625 to 100 nM (1.5625, 3.125, 6.25, 12.5, 25, 50, 100 nM) for each analyzed peptide. The following program was used: • Baseline: 1000 rpm for 180 sec. • Load: 1000 rpm for 900 sec. • Baseline: 1000 rpm for 180 sec. • Blocking: 1000 rpm for 300 sec. • Association: 1000 rpm for 1200-2400 sec. • Dissociation: 1000 rpm for 1200-2400 sec.
The peptides displaying the highest binding affinities from the peptide microarray experiments were synthesized by standard Fmoc-based solid-phase-synthesis protocols and purified (HPLC purity: >80%). The binding characteristics of each peptide were determined. In the first instance all peptides were analysed via biolayer interferometry (BLI) to get a first impression whether the respective variant has a significant binding property at all (yes/no binding, Table 2). At his point, only one TR66 concentration (500 nM) was tested. Except variants aCD3-04-010 and aCD3-04-012 all peptides show a measurable binding activity.

[2] = target: TR66 antibody (CD3ε specific antibody, clone TR66); test: Binding analysis using peptide ELISA, biotinylated peptides on streptavidin plates, TR66
Protocol: FIG. 3. Binding analysis of phage derived variants using a peptide based ELISA. Biotinylated peptides were immobilized on streptavidin plates (Nunc) in a concentration of 0.75 μg/ml. After blocking 30 μg/ml TR66 or an unrelated antibody (control ab) were added and incubated for 1 h at 37° C. Binding was detected with an alkaline phosphatase conjugated goat anti-human IgG antibody (Sigma) and the chromogenic substrate PNPP (para-nitrophenyl phosphate). All reactions were performed as duplicates. SD values are presented as error bars.
For the detection of TR66 or OKT3 (Bio-X-Cell), the CD3 mimicking peptides were immobilized on streptavidin plates (Nunc) in a concentration of 0.75 μg/ml in PBS buffer for 1 hour at 37° C. Subsequently, the plate was washed three times with washing buffer (0.01% Tween-20 in PBS buffer) before it was blocked with 3% BSA in PBS overnight at 4° C. To detect TR66 or OKT3, the blocked plate was washed again three times with washing buffer followed by the addition of TR66 or OKT3 and incubation for 30 min at 37° C. After another washing step, it was incubated with an alkaline phosphatase conjugated Goat anti-human or anti-mouse IgG, Fe antibody (Jackson Immuno Research) for additional 30 min at 37° C. Finally, the plate was washed again before being incubated with 1.5 mg/ml of the substrate PNPP (para-nitrophenyl phosphate) in appropriate substrate buffer (1 M Diethanolamine, 0.05 mM MgCl2, 0.01% sodium azide, pH 9.8) for 30 min at RT in the dark. 3 M KOH was used to stop the enzymatic reaction. Absorbance was measured with a microplate reader (Infinite M200, Tecan). For dual wavelength analysis, 405 nm was chosen as measurement wavelength and 492 nm as reference wavelength. Absorbance values were calculated by subtraction of the measured values for the reference wavelength and for the measurement wavelength. Calculation of apparent KD values was done by fitting the data with Sigma Plot 10 using a two-site saturation binding model.

[3] = tested on: TR66 antibody; test: Peptide microarray incubated with TR66, fluorescently labelled secondary antibody; format: binding; conditions: cyclic peptide immobilized through C-terminus; 1.0 μg/ml TR66; data not shown
Protocol: Peptides were synthesized and printed on peptide-microarray slides essentially as described previously (Funkner, A. et al., J. Mol. Biol. 425, 1340-1362 (2013)). In brief, the peptides were synthesized using SPOT synthesis (Wenschuh, H. et al., Biopolymers 55, 188-206 (2000)) cleaved from the solid support and cyclized (50% DMSO, PBS buffer pH 7-8, RT, 16 hours). Subsequently, all peptides were chemoselectively immobilized on functionalized glass slides as described earlier (Schnatbaum, K. et al., Biotechnol. J. 9, 545-554 (2014); Funkner, A. et al., J. Mol. Biol. 425, 1340-1362 (2013)). Each peptide was deposited on the microarray in triplicates.
The microarrays were incubated with 1.0 or 0.1 μg/ml TR66 in an HS 4800 microarray processing station (Tecan) for two hours at 30° C., followed by incubation with 1.0 μg/ml fluorescently labelled secondary antibody (Alexa647 anti-human Fe antibody; Jackson Immuno Research). Washing steps were performed prior every incubation step with 0.1% Tween-20 in 1×TBS. After the final incubation step the microarrays were washed (0.05% Tween-20 in 0.1×SSC) and dried in a stream of nitrogen. Each microarray was scanned using a GenePix Autoloader 4200AL (Molecular Devices, Pixel size: […]). Signal intensities were evaluated using GenePix Pro 7.0 analysis software (Molecular Devices). For each peptide, the mean of the three triplicates was calculated. […]

## C[C@H](N)C(=O)N[C@H]1CSSC[C@@H](C(=O)NCC(=O)NCC(=O)NCC(=O)N[C@@H](CO)C(=O)N[C@@H](CCCCNC(=O)CCCC[C@@H]2SC[C@@H]3NC(=O)N[C@@H]32)C(=O)O)NC(=O)[C@H](CCC(N)=O)NC(=O)[C@@H]2CCCN2C(=O)[C@H](CC(=O)O)NC(=O)CNC(=O)[C@@H]2CCCN2C(=O)[C@H](CCCNC(=N)N)NC(=O)[C@H]([C@@H](C)O)NC1=O [aCD3 C7C-4, ACTRPGDPQC-GGGS-K(Bio)] (H-ACTRPGDPQCGGGSK(Biotin)-OH; disulfide 2-10)
[1]
  Yes/no binding, BLI: Yes
[2]; TR66, mean of at least two individual measurements, two-site saturation binding model, read-out: Apparent KD, ELISA
  Kd: 370 nM
[2]; peptide 0.75 μg/ml, 30 μg/ml TR66
  TR66 binding after chemical synthesis, ELISA-based binding analysis (FIG. 3): could be verified
[3]
  TR66 binding on peptide microarray: strong binding
